In patent publication US5807721A, “Compound FO-1289, process of production with aspergillus and strain” (The Kitasato Institute, priority 1992, dated 1998) one finds IC50 data, which are given here for four molecules.

The target of the assay is rat acyl CoA cholesterol acyltransferase. Nature of the assay: Inhibitory action on rat acyl CoA cholesterol acyltransferase (rat liver microsome crude enzyme, [1-14C]oleoyl-CoA). The format is biochemical. Particulars: rat liver microsome fraction, pH 7.4, 37° C., 30 minutes, 30 μM oleoyl-CoA, 30 μM cholesterol; read-out: IC50 (50% inhibition concentration on the enzyme). As to the method:
An inhibitory action of the FO-1289 substance for acyl CoA cholesterol acyltransferase is tested according to the method of Kyoda et al. (J. Antibiotics, 44: 136 1991). A crude enzyme prepared from rat liver microsome fraction is added in the 100 mM phosphate buffer solution (pH 7.4) […] containing 300 μM bovine serum albumin. 30 μM (1-^14 C ) oleoyl-CoA (0.02 μCi) and 30 μM cholesterol (solubilized with 1/30 w/w Triton WR-1339) and incubaatd at 37° C. for 30 minutes. Total lipid is extracted with a mixture of chloroform-methanol (2:1), then each lipid is separated by thin layer chromatography (Kiesel gel GF254, developer:petroleum ether--diethyl ether--acetic acid=90:10:1). Radioactivity incorporated in the cholesterol ester fraction is analysed by RI scanner (Ambis Corp.) to assay an activity of acyl CoA cholesterol acyltransferase.
For the molecule `CC(=O)OCC1(C)C(OC(C)=O)CCC2(C)C1CC(OC(C)=O)C1(C)Oc3cc(-c4cccnc4)oc(=O)c3C(O)C21` (stereo not shown) [FO-1289A], the IC50 was 40 nM. Turning to `CCC(=O)OCC1(C)C(OC(C)=O)CCC2(C)C1CC(OC(C)=O)C1(C)Oc3cc(-c4cccnc4)oc(=O)c3C(O)C21` (stereo not shown) [FO-1289B], the IC50 was determined as 100 nM. For the molecule `CCC(=O)OC1CC2C(C)(COC(C)=O)C(OC(C)=O)CCC2(C)C2C(O)c3c(cc(-c4cccnc4)oc3=O)OC12C` (stereo not shown) [FO-1289C], the IC50 came to 30 nM. For `CCC(=O)OC1CCC2(C)C(CC(OC(C)=O)C3(C)Oc4cc(-c5cccnc5)oc(=O)c4C(O)C23)C1(C)COC(C)=O` (stereo not shown) [FO-1289D], the IC50 worked out at 150 nM.
